Entries after “also recorded” stand apart in the source; their conditions may differ.
Tests used:
[1] = tested on: Crohn's Disease; details: reported in D'Haens et al. 2015 and WO 2011/014255; cited from earlier work
[2] = tested on: CD4+ adoptive transfer induced inflammatory bowel disease in mice; experiment: CD4+ adoptive transfer induced inflammatory bowel disease in mice; type: in vivo, Fox Chase C.B-17 SCID mice; details: 1 mg/kg daily, day 21 to 49; for inhibition of inflammation/edema associated with inflammatory bowel disease (anti-inflammatory effect in colon): Potassium Salt
Experimental: The efficacy of Example compound 2 in inhibiting inflammation/edema associated with inflammatory bowel disease was evaluated in a CD4+ adoptive transfer induced inflammatory bowel disease in mice.
Species/Strain or Breed: Fox Chase C.B-17 SCID & Balb/C
On study day −1, SCID mice were weighed and evenly distributed into treatment groups based on body weight.
On study day 0, Balb/C mice were terminated, and spleens obtained for CD4^+CD45RB^high cell isolation (Using SCID IBD Cell Separation Protocol). After cells were sorted and obtained, each animal in the treatment groups received an IP injection of CD4^+CD45RB^high cells at a minimum 4×10^5 cells (200 μl/mouse injections). A naïve group of mice was followed through the experiment without receiving the injection of cells. The naïve group comprised 5 animals.
On study day 21, treatment with Example compound 2 (1 mg/kg, daily day 21 to 49) was initiated. The compound was formulated as a 0.1 mg/mL suspension with sodium carboxymethyl cellulose (1%, w/v). Mice received either Example compound 2 or vehicle. Each of those groups comprised 10 animals.
On study day 49, animals were anesthetized with Isoflurane and bled to exsanguination followed by cervical dislocation. The entire colon was removed, measured, and weighed. The colon was analysed for its level of interferon-γ and IL-22. The inflammation in the colons was also scored by visual and histopathological assessments.

[3] = tested on: aryl hydrocarbon receptor (AhR); experiment: Activation of AhR in colon of mice after oral dosing (qPCR of CYP1A1); type: in vivo, C57Bl/6 mice; details: for Colon CYP1A1 (fold change over untreated) Mean / Liver CYP1A1 (fold change over untreated) Mean: day 14; for Colon CYP1A1 (fold change over untreated) Mean: qPCR normalized to GAPDH & ACTB
Experimental: The potential of Example compound 2 to activate the aryl hydrocarbon receptor (AhR) in the colon following oral administration was evaluated in a wild-type (WT) mice.
Species/Strain or Breed: C57Bl/6
On study day 0, animals were weighed and evenly distributed into treatment groups based on body weight. On study day 14, animals were asphyxiated via CO2 inhalation followed by cervical dislocation. The entire colon was removed, collected and prepared for qPCR analysis of CYP1A1 (Normalized to GAPDH & ACTB).
The Example compound 2 was formulated as a 0.1 mg/ml, 0.01 mg/ml or 0.001 mg/ml suspension with sodium carboxymethyl cellulose (1%, w/v).

[4] = In vivo pharmacokinetic study in rats; parameters: species or system Sprague Dawley rats; details: 1 mg/kg oral, rat plasma
Experimental: An in vivo pharmacokinetic study in rats was performed to determine if Example compound 2 can be absorbed and detected systemically after oral dosing. 4 male Sprague Dawley rats, approximately 225 g-250 g at dosing were dosed with 1 mg/kg of Example compound 2 formulated as a 0.1 mg/mL suspension with sodium carboxymethyl cellulose (1%, w/v). Blood samples were taken at 15 min, 30 min, 1 h, 2 h, 4 h, 6 h, 8 h and 24 h post dose At each blood sampling approximately 250 μL blood was sampled in K3EDTA vials and approximately 100 μL plasma was also prepared. The plasma samples were prepared by mixing 50 μL plasma with 250 μL of internal standard solution (20 ng/mL of phenacetin in ACN with 1% formic acid), mixed and centrifuged (20 min, 4000 rpm). Plasma samples were transferred to Waters Ostro 96-well plate and drawn through the plate by applying 6-8 psi positive pressure for 10 min. 100 μL of supernatant was further diluted with 50 μL UP water and sample was submitted to analysis. The standard and QC samples were prepared into blank rat colon homogenate and blank rat plasma. Standards were spiked into concentrations 0.1-10000 ng/mL of the analytes, QC samples into 3, 30, 300 and 3000 ng/mL, and were otherwise treated as samples.

[5] = tested on: DSS model of Ulcerative Colitis using C57Bl/6 mice; experiment: DSS model of Ulcerative Colitis in mice; type: in vivo; details: 1 mg/kg daily oral, vs vehicle (and anti-TNFα antibody); for colitis clinical score: suspension in CMC-Na 2%, Day 9; for colon length: Day 10, experiment termination
Experimental: Ulcerative Colitis was modelled in C57Bl/6 mice by administering Dextran Sulphate Sodium (DSS) in drinking water (1.5% w/v) for 5 days. Mice were monitored daily for weight loss and clinical symptoms of disease for 10 days starting at the beginning of DSS administration.
The length and weight of the colon were also assessed.
Compared to naïve animals, animals given DSS water developed clinical signs of disease including weight loss and diarrhoea as well as gross pathological signs of disease on experiment termination. […] Shortened length and increased weight:length ratio indicates edema associated with ulcerative colitis.

**Q.** Which “benefit in treatment of Crohn's Disease” value [1] does the source give for `CCN(C(=O)c1c(O)c2c(Cl)cccc2n(C)c1=O)c1ccccc1` [laquinimod] here?
**A.** The value was “beneficial for the treatment of Crohn's Disease”.

**Q.** Which “inhibition of inflammation/edema associated with inflammatory bowel disease (anti-inflammatory effect in colon)” value [2] does the source give for `Cn1c(=O)c(C(=O)Nc2ccccc2)c(O)c2c(Cl)cccc21.[K]` [Example compound 2, 5-chloro-4-hydroxy-1-methyl-2-oxo-N-phenyl-quinoline-3-carboxamide Potassium Salt] here?
**A.** Its value is “local anti-inflammatory effect in the colon”.

**Q.** And the “colon level of inflammatory markers (interferon-γ and IL-22)” value ([2]; colon at day 49, vs vehicle)?
**A.** The value was “lower levels of inflammatory markers”.

**Q.** And the “inflammation in the colons scored by visual and histopathological assessments” value ([2]; day 49, vs vehicle)?
**A.** The value was “fewer signs of inflammation”.

**Q.** What about the “inhibition of inflammation/edema associated with inflammatory bowel disease (anti-inflammatory effect in colon)” value ([2]; listed as potassium salt of DELAQ) of the same compound?
**A.** The value was “effective in inhibiting inflammation/edema”.

**Q.** And the “body weight (weight loss)” value ([2]; vs vehicle)?
**A.** The value was “less weight loss”.

**Q.** And the “Colon CYP1A1 (fold change over untreated) Mean” value ([3]; 0.01 mg/kg PO QD D0-13)?
**A.** Its value is 1.03 fold change over untreated.

**Q.** What about the “Liver CYP1A1 (fold change over untreated) Mean” value ([3]; 0.01 mg/kg PO QD D0-13) of the same compound?
**A.** The value was 1.08 fold change over untreated.

**Q.** And the “Colon CYP1A1 (fold change over untreated) Mean” value ([3]; 0.1 mg/kg PO QD D0-13)?
**A.** Its value is 7.42 fold change over untreated.

**Q.** What about the “Liver CYP1A1 (fold change over untreated) Mean” value ([3]; 0.1 mg/kg PO QD D0-13) of the same compound?
**A.** Its value is 2.81 fold change over untreated.

**Q.** What about the “Colon CYP1A1 (fold change over untreated) Mean” value ([3]; 1.0 mg/kg PO QD D0-13) of the same compound?
**A.** The value was 8.34 fold change over untreated.

**Q.** And the “Liver CYP1A1 (fold change over untreated) Mean” value ([3]; 1.0 mg/kg PO QD D0-13)?
**A.** Its value is 3.44 fold change over untreated.

**Q.** What about the “CYP1A1 mRNA expression compared to untreated animals (AhR activation)” value ([3]; 1.0 and 0.1 mg/kg oral, WT mice) of the same compound?
**A.** The value was “significant increase in CYP1A1 mRNA expression”.

**Q.** What about the “AhR activating effect, colon versus liver CYP1A1 increase” value ([3]; oral, increase in liver CYP1A1 lower than in colon) of the same compound?
**A.** The value was “local AhR activating effect”.

**Q.** And the clearance from plasma [4]?
**A.** Its clearance from plasma is “rapidly cleared”.

**Q.** And the “level in the plasma after oral dosing” value ([4]; 15 min to 24 h post dose)?
**A.** The value was “detected in the plasma”.

**Q.** Which results are given for `Cn1c(=O)c(C(=O)Nc2ccccc2)c(O)c2c(Cl)cccc21` [Example compound 1, 5-chloro-4-hydroxy-1-methyl-2-oxo-N-phenyl-quinoline-3-carboxamide]?
**A.** colitis clinical score [5]: significant reduction in colitis clinical score; also recorded: lower colitis score; colitis clinical score ([5]; listed as DELAQ): protective effect against the development of the clinical symptoms of Ulcerative Colitis; colon length [5]: significant increase in colon length; also recorded: greater colon length; colon length ([5]; listed as DELAQ): effective at reducing colon shortening; body weight change (% change from day 1 of experiment), weight loss [5]: reduced weight loss

Source: patent publication US20230167064A1, “TREATMENTS OF INFLAMMATORY BOWEL DISEASE” (Aqilion AB, priority 2020, published 2023)
